Data: patent publication US20120264827A1, “SULFANYLAMIDE DERIVATIVES, USES THEREOF AND COMPOSITIONS COMPRISING THEM” (YISSUM RESEARCH DEVELOPMENT COMPANY OF THE HEBREW …, priority 2009, published 2012)
Like-named read-outs stand apart in the source and are kept apart here.

Assays:
[1] = tested on: maximal electroshock seizure (MES); experiment: Maximal electroshock seizure test (MES), mice, intraperitoneal; type: in vivo; conditions: ip;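 further: adult male CF no. 1 albino mice of 18–25 g, given compound intraperitoneally as a 0.5% methylcellulose suspension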
[2] = tested on: subcutaneous metrazol (pentylenetetrazol) seizure; experiment: Subcutaneous metrazol seizure threshold test (scMet), mice, intraperitoneal; type: in vivo; conditions: ip;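 further: adult male CF no. 1 albino mice weighing 18-25 g, dosed intraperitoneally with compounds suspended in 0.5% methylcellulose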
[3] = tested on: maximal electroshock seizure (MES); experiment: Maximal electroshock seizure test (MES), rats, oral; conditions: Rattus norvegicus, po, read-out: Anti-MES activity (number of animals protected/number of animals tested);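 further: adult male Sprague-Dawley rats received test compounds by mouth as a suspension in 0.5% methylcellulose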
Protocol: The tested compounds were suspended in 0.5% methylcellulose and administered (a) intraperitioneally (ip) to adult male CF no. 1 albino mice (18-25 g) in volume of 0.01 mL/g body weight and (b) orally to adult male Sprague-Dawley albino rats (100-150 g) in volume of 0.04 mL per 10 g of body weight.
The TD50 was determined by varying the dose of the tested compounds until four points were established between the dose level that induced no signs of minimal motor impairment in any of the animals and the dose at which all the animals were considered impaired. […] The PIs were calculated by dividing the TD50 by the ED50.

[4] = 30 mg/kg, 0.5 h after administration
[5] = 30 mg/kg, 4 h after administration
[6] = 100 mg/kg, 0.5 h after administration
[7] = 100 mg/kg, 4 h after administration
[8] = 300 mg/kg, 0.5 h after administration
[9] = 300 mg/kg, 4 h after administration

| SMILES | MES (number of animals protected/number of animals tested) [1, 4] | MES (number of animals protected/number of animals tested) [1, 5] | MES (number of animals protected/number of animals tested) [1, 6] | MES (number of animals protected/number of animals tested) [1, 7] | MES (number of animals protected/number of animals tested) [1, 8] | MES (number of animals protected/number of animals tested) [1, 9] | scMet (number of animals protected/number of animals tested) [2, 4] | scMet (number of animals protected/number of animals tested) [2, 5] | scMet (number of animals protected/number of animals tested) [2, 6] | scMet (number of animals protected/number of animals tested) [2, 7] | scMet (number of animals protected/number of animals tested) [2, 8] | scMet (number of animals protected/number of animals tested) [2, 9] | responders at 30 mg/kg ([3]; 0.5 h) | responders at 30 mg/kg ([3]; 1 h) | responders at 30 mg/kg ([3]; 2 h) | responders at 30 mg/kg ([3]; 4 h) | responders at 30 mg/kg ([3]; […]) | melting point |
| --- | --- | --- | --- | --- | --- | --- | --- | --- | --- | --- | --- | --- | --- | --- | --- | --- | --- | --- |
| CCC(C)C(=O)Nc1ccc(S(N)(=O)=O)cc1 (stereo not drawn) [Compound 10, 2-Methyl-N-(4-sulfamoyl-phenyl)-butyramide] | 1/1 | 1/1 | 3/3 | 3/3 | 1/1 | 1/1 | 0/1 0/1 0/1 | 0/1 0/1 0/1 | 0/1 0/1 0/1 | 0/1 0/1 0/1 | 0/1 0/1 0/1 | 0/1 0/1 0/1 | 50% | 100% | 100% | 100% | 50% | – |
| CC(C)(C)CC(=O)Nc1ccc(S(N)(=O)=O)cc1 [Compound 15, 3,3-Dimethyl-N-(4-sulfamoyl-phenyl)-butyramide] | 0/1 | 0/1 | 5/7 | 1/3 | 4/5 | 1/1 | 0/1 0/1 0/1 | 0/1 0/1 0/1 | 0/1 0/1 0/1 | 0/1 0/1 0/1 | 0/1 0/1 0/1 | 0/1 0/1 0/1 | 25% | 75% | 100% | 100% | 75% | – |
| CCCC(C(=O)Nc1ccc(S(N)(=O)=O)cc1)C(C)(C)C (stereo not drawn) [Compound 22, 2-tert-Butyl-N-(4-sulfamoyl-phenyl)-pentanamide] | 0/1 | 0/1 | 0/3 | 0/3 | 0/1 | 0/1 | 0/1 0/1 0/1 | 0/1 0/1 0/1 | 0/1 0/1 0/1 | 0/1 0/1 0/1 | 0/1 0/1 0/1 | 0/1 0/1 0/1 | – | – | – | – | – | – |
| CCC(C(=O)Nc1ccc(S(N)(=O)=O)cc1)C(C)(C)C (stereo not drawn) [Compound 12, 2-Ethyl-3,3-dimethyl-N-(4-sulfamoyl-phenyl)-butyramide] | 0/1 | 0/1 | 0/3 | 1/3 | 0/1 | 1/1 | 0/1 0/1 0/1 | 0/1 0/1 0/1 | 0/1 0/1 0/1 | 0/1 0/1 0/1 | 0/1 0/1 0/1 | 0/1 0/1 0/1 | – | – | – | – | – | – |
| CCCC(CC)C(=O)Nc1ccc(S(N)(=O)=O)cc1 (stereo not drawn) [Compound 17, 2-Ethyl-N-(4-sulfamoyl-phenyl)-pentanamide] | 0/1 | 0/1 | 0/3 | 1/3 | 0/1 | 1/1 | 0/1 0/1 0/1 | 0/1 0/1 0/1 | 0/1 0/1 0/1 | 0/1 0/1 0/1 | 0/1 0/1 0/1 | 0/1 0/1 0/1 | – | – | – | – | – | – |
| CCC(C)CC(=O)Nc1ccc(S(N)(=O)=O)cc1 (stereo not drawn) [Compound 24, 3-Methyl-N-(4-sulfamoyl-phenyl)-pentanamide] | 0/1 | 0/1 | 0/3 | 0/3 | 0/1 | 0/1 | 0/1 0/1 0/1 | 0/1 0/1 0/1 | 0/1 0/1 0/1 | 0/1 0/1 0/1 | 0/1 0/1 0/1 | 0/1 0/1 0/1 | – | – | – | – | – | – |
| CC(C)C(C(=O)Nc1ccc(S(N)(=O)=O)cc1)C(C)C [Compound 13, 2-Isopropyl-3-methyl-N-(4-sulfamoyl-phenyl)-butyramide] | 0/1 | 0/1 | 0/3 | 0/3 | 0/1 | 0/1 | 0/1 0/1 0/1 | 0/1 0/1 0/1 | 0/1 0/1 0/1 | 0/1 0/1 0/1 | 0/1 0/1 0/1 | 0/1 0/1 0/1 | 0% | 0% | 0% | 50% | 0% | – |
| CC(C)C(C(=O)Nc1ccc(S(N)(=O)=O)cc1)C(C)(C)C (stereo not drawn) [Compound 14, 2-Isopropyl-3,3-dimethyl-N-(4-sulfamoyl-phenyl)-butyramide] | 0/1 | 0/1 | 0/3 | 3/3 | 0/1 | 1/1 | 0/1 0/1 0/1 | 0/1 0/1 0/1 | 0/1 0/1 0/1 | 0/1 0/1 0/1 | 0/1 0/1 0/1 | 0/1 0/1 0/1 | – | – | – | – | – | – |
| CC(C)(C)C(=O)NCc1ccc(S(N)(=O)=O)cc1 [Compound 26, 2,2-Dimethyl-N-(4-sulfamoyl-benzyl)-propionamide] | 0/1 | 0/1 | 0/3 | 0/3 | 0/1 | 0/1 | 0/1 0/1 0/1 | 0/1 0/1 0/1 | 0/1 0/1 0/1 | 0/1 0/1 0/1 | 0/1 0/1 0/1 | 0/1 0/1 0/1 | – | – | – | – | – | 157 to 158 °C |
| CCC(CC)C(=O)NCCc1ccc(S(N)(=O)=O)cc1 [Compound 29, 2-Ethyl-N-[2-(4-sulfamoyl-phenyl)-ethyl]-butyramide] | 0/1 | 1/1 | 0/3 | 1/3 | 0/1 | 1/1 | 0/1 0/1 0/1 | 0/1 0/1 0/1 | 0/1 0/1 0/1 | 0/1 0/1 0/1 | 0/1 0/1 0/1 | 0/1 0/1 0/1 | 50% | 75% | 25% | 25% | 25% | – |
